Measured values taken from patent US20230266302A1, “SYNTHESIS AND USE OF N-BENZYL SULFONAMIDES” (THE UNIVERSITY OF TULSA, priority 2020, published 2023).

How the values were obtained:
Assay in all cases: ATP level assay (CellTiter-Glo), percent of control
Assay type in all cases: cell-based
[1] = system: BxPC3 (pancreatic cancer); settings: two hour incubation; for activity at 100 µM: Homo sapiens, BXPC-3, 2 h, compound alone, control DMSO, read-out: POC (percent of control) BxPC3
Source text: (§1) In the present method, the method of using the available assays has been modified to measure the short-term effect of compounds of interest on ATP levels in the cells. […] In the modified method, the control and test cells are initially treated with the metabolic inhibitor for a period of about thirty minutes to about four hours. Typically, the treatment of the cells with the metabolic inhibitor is for one hour prior to adding the compound to be screened for anti-cancer properties. However, simultaneous treatment with the metabolic inhibitor and the compound being screened should provide satisfactory results. […] ATP synthesis in cells occurs over multiple biochemical pathways. These pathways are very responsive to metabolic inhibitors and/or changes in available nutrients. By incorporating a metabolic inhibitor which is known to impact certain pathways, the disclosed method provides for measurement of a compound's direct effects on the remaining metabolic pathways available for ATP synthesis in the cell.
(§2) Following treatment of the control and test cells with the metabolic inhibitor, the method calls for addition of the compound to be screened for anti-cancer properties to the cells. Following addition of the compound of interest, the assay is allowed to continue for about one hour to about four hours or depending on the luminescing agent up to eighteen hours. However, approximately 60 minutes will be sufficient to determine the ATP inhibiting effect of the compound to be screened on the cells. Following completion of the selected time period, the ATP level within the cell is determined. ATP levels can be determined by luminescence according to standard measuring procedures, i.e. the luminescence level of the assay from the living cells treated with the two component composition is compared to the luminescence level of the assay from the living cells without the two component composition, i.e., the control experiment. Thus, the ATP levels are determined without killing the cells during the incubation of the cells in the presence of the compound of interest. As a result, the measured reduction in ATP level corresponds directly to the inhibition of the metabolic pathways uninhibited by the metabolic blocker.
(§3) A wide variety of ATP luminescing detection reagents are available commercially. So long as the reagent produces a luminescence in the presence of ATP, the reagent will be suitable for use in the present method. Suitable reagents include but are not limited to any ATP dependent luciferase such as but not limited to firefly luciferase, other modified luciferase based reagents, i.e. luciferase derivatives. According to the rapid method for determining the anti-cancer activity of a compound, a sample of living cells is distributed across a number of testing wells. Typically, 96-well plates are used; however, the number of wells is not critical to the current method. When using a 96-well plate the number of living cells will commonly be about 20,000. The sample wells contain a cell growth medium to promote cell health and growth and an additive to prevent bacterial contamination of the wells. One common example of the cell growth medium is DMEM with 10% FBS as described above. One example of the additive to prevent bacterial contamination is a solution of penicillin G and streptomycin referred to commonly as Pen-Strep. The Pen-Strep solution typically contains 5000 units of penicillin G and 5000 micrograms of streptomycin. Thus, the rapid determination of anti-cancer compounds can be carried out using the following method. • The desired number of cells are distributed in a 96-well plate containing 100 μL DMEM plus 10% FBS with optional Pen-Strep. • After 24 hours, cells are treated with the compound of interest or a 5% solution of dimethyl sulfoxide (DMSO) in water as a control. • The time period for exposure to the compound of interest and the DMSO control will vary depending on the luminescing detection reagent. […]

[2] = system: H293 (kidney cancer); settings: two hour incubation; for activity at 100 µM: 2 h, compound alone, control DMSO, read-out: POC (percent of control) H293
Source text: as §1, §2, §3

[3] = system: HDF (normal cells); settings: two hour incubation; for activity at 100 µM: 2 h, compound alone, control DMSO, read-out: POC (percent of control) HDF
Source text: as §1, §2, §3

[4] = system: HeLa (cervical cancer); settings: two hour incubation; for activity at 100 µM: Homo sapiens, HeLa, 2 h, compound alone, control DMSO, read-out: POC (percent of control) HeLa
Source text: as §1, §2, §3

[5] = system: MCF10A (non-cancerous breast); settings: two hour incubation; for activity at 100 µM: Homo sapiens, MCF-10A, 2 h, compound alone, control DMSO, read-out: POC (percent of control) MCF10A
Source text: as §1, §2, §3

[6] = system: MCF7 (breast cancer); settings: two hour incubation; for activity at 100 µM: Homo sapiens, MCF7, 2 h, compound alone, control DMSO, read-out: POC (percent of control) MCF7
Source text: as §1, §2, §3

[7] = system: MDA-MB (breast cancer); settings: two hour incubation; for activity at 100 µM: 2 h, compound alone, control DMSO, read-out: POC (percent of control) MDA-MB
Source text: as §1, §2, §3

[8] = system: NCI-H196 (lung cancer); settings: two hour incubation; for activity at 100 µM: NCI-H196, 2 h, compound alone, control DMSO, read-out: POC (percent of control) NCI-H196
Source text: as §1, §2, §3

[9] = system: PC3 (prostate cancer); settings: two hour incubation; for activity at 100 µM: 2 h, compound alone, control DMSO, read-out: POC (percent of control) PC3
Source text: as §1, §2, §3

[10] = system: SkBr3 (breast cancer); settings: two hour incubation; for activity at 100 µM: Homo sapiens, SK-BR-3, 2 h, compound alone, control DMSO, read-out: POC (percent of control) SkBr3
Source text: as §1, §2, §3

[11] = system: T47D (breast cancer); settings: two hour incubation; for activity at 100 µM: Homo sapiens, T47D, 2 h, compound alone, control DMSO, read-out: POC (percent of control) T47D
Source text: as §1, §2, §3

[12] = compound 100 uM + 2DG (about 10-20 mM)
[13] = compound 100 uM + rotenone (approximately 1.25 μM)

Compound | activity at 100 µM [1] | POC (percent of control) BxPC3 [1, 13] | activity at 100 µM [2] | POC (percent of control) H293 [2, 12] | POC (percent of control) H293 [2, 13] | activity at 100 µM [3] | POC (percent of control) HDF [3, 12] | POC (percent of control) HDF [3, 13] | activity at 100 µM [4] | POC (percent of control) HeLa [4, 12] | POC (percent of control) HeLa [4, 13] | activity at 100 µM [5] | POC (percent of control) MCF10A [5, 12] | POC (percent of control) MCF10A [5, 13] | activity at 100 µM [6] | POC (percent of control) MCF7 [6, 12] | POC (percent of control) MCF7 [6, 13] | activity at 100 µM [7] | POC (percent of control) MDA-MB [7, 12] | POC (percent of control) MDA-MB [7, 13] | also measured
Cc1ccc(S(=O)(=O)NCc2coc(C)n2)cc1 [Compound 21, 4-methyl-N-[(2-methyl-1,3-oxazol-4-yl)methyl]benzenesulfonamide] | 112% | 114.8% of control | 115% | 87.8% of control | 87% of control | 87.9% | 97.4% of control | 113.6% of control | 101% | 105.8% of control | 109.4% of control | 108% | 92.8% of control | 120% of control | 189% | 121.1% of control | 111% of control | 101% | 100.7% of control | 121.5% of control | POC (percent of control) BxPC3 [1, 12]: 106.8% of control; activity at 100 µM [8]: 108%; POC (percent of control) NCI-H196 [8, 12]: 107.4% of control; POC (percent of control) NCI-H196 [8, 13]: 130.5% of control; activity at 100 µM [9]: 93.3%; POC (percent of control) PC3 [9, 12]: 131.7% of control; POC (percent of control) PC3 [9, 13]: 110.9% of control; activity at 100 µM [10]: 102%; POC (percent of control) SkBr3 [10, 12]: 108.5% of control; POC (percent of control) SkBr3 [10, 13]: 106.9% of control; activity at 100 µM [11]: 88.7%; POC (percent of control) T47D [11, 12]: 99.4% of control; POC (percent of control) T47D [11, 13]: 86.4% of control
CC(=O)n1cc(CNS(=O)(=O)c2ccc(Cl)cc2)c2ccccc21 [Compound 4, N-[(1-acetyl-1H-indole-3-yl)methyl]-4-chlorobenzenesulfonamide] | 88.4% | 71.1% of control | 88.6% | 60% of control | 65.8% of control | 88.1% | 66.8% of control | 88.6% of control | 90.6% | 67.4% of control | 84.3% of control | 59.7% | 84.8% of control | 89.8% of control | 108% | 82.2% of control | 79.2% of control | 94.7% | 63.6% of control | 71.9% of control | activity at 100 µM [8]: 72.5%; POC (percent of control) NCI-H196 [8, 12]: 49.6% of control; POC (percent of control) NCI-H196 [8, 13]: 61.5% of control; activity at 100 µM [9]: 93.7%; POC (percent of control) PC3 [9, 12]: 61.9% of control; POC (percent of control) PC3 [9, 13]: 61.3% of control; activity at 100 µM [10]: 79.1%; POC (percent of control) SkBr3 [10, 12]: 87.5% of control; POC (percent of control) SkBr3 [10, 13]: 96.8% of control; activity at 100 µM [11]: 48.9%; POC (percent of control) T47D [11, 12]: 36.3% of control; POC (percent of control) T47D [11, 13]: 45.8% of control
Cc1cccc2[nH]cc(CNS(=O)(=O)c3ccccc3)c12 [Compound 7, N-[(4-methyl-1H-indol-3-yl)methyl]benzenesulfonamide] | 86.3% | 79.1% of control | 93.2% | 60.9% of control | 65.3% of control | 87.7% | 60.8% of control | 77.9% of control | 91% | 70.6% of control | 79.5% of control | 66% | 64.5% of control | 97.9% of control | 107% | 91.6% of control | 75.9% of control | 85.6% | 81.2% of control | 102.4% of control | POC (percent of control) BxPC3 [1, 12]: 60.9% of control; activity at 100 µM [8]: 84.9%; POC (percent of control) NCI-H196 [8, 12]: 70.1% of control; POC (percent of control) NCI-H196 [8, 13]: 77.7% of control; activity at 100 µM [9]: 95%; POC (percent of control) PC3 [9, 12]: 59.4% of control; POC (percent of control) PC3 [9, 13]: 82% of control; activity at 100 µM [10]: 108%; POC (percent of control) SkBr3 [10, 12]: 76.2% of control; POC (percent of control) SkBr3 [10, 13]: 88.2% of control; activity at 100 µM [11]: 46.5%; POC (percent of control) T47D [11, 12]: 40.1% of control; POC (percent of control) T47D [11, 13]: 66% of control
